Experimental data as given in ChEMBL document CHEMBL1201862, “PubChem BioAssay data set” (2004).
Activity calls are given as the source filed them.

How the values were obtained:
[1] = biological target: T1, Corticotropin-releasing factor receptor 2/Corticotropin-releasing factor-binding protein (Homo sapiens, UniProt P24387+Q13324); test: activators of CRF receptor 2 with binding protein – uHTS hits, confirmation (AID 602473); type: functional; conditions: read-out: EC50_Mean
T1 sequence (Q13324 whole entry): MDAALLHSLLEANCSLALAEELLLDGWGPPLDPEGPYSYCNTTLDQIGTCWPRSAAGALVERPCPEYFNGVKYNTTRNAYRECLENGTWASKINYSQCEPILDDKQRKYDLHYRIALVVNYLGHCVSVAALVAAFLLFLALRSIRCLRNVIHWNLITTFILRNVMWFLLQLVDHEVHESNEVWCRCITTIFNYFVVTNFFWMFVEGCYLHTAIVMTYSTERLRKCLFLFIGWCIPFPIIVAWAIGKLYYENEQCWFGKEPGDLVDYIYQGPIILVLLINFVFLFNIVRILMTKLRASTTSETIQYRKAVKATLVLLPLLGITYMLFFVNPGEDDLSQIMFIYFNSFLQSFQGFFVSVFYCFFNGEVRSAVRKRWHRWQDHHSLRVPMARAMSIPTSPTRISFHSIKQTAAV
T1 sequence (P24387 whole entry): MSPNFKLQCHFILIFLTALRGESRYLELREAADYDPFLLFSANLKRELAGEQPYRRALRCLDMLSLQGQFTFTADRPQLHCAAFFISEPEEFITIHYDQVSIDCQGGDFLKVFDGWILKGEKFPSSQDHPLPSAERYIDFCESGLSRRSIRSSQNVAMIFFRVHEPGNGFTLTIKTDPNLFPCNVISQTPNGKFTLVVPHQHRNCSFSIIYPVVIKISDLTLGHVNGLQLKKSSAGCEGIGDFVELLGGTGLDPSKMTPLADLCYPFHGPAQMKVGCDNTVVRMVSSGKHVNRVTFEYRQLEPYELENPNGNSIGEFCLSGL

Cytochrome P450 1A2 = biological target: T2, Cytochrome P450 1A2 (Homo sapiens, UniProt P05177);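 also: PubChem cytochrome P450 panel assay, CYP1A2 panel member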
T2 sequence (P05177 whole entry): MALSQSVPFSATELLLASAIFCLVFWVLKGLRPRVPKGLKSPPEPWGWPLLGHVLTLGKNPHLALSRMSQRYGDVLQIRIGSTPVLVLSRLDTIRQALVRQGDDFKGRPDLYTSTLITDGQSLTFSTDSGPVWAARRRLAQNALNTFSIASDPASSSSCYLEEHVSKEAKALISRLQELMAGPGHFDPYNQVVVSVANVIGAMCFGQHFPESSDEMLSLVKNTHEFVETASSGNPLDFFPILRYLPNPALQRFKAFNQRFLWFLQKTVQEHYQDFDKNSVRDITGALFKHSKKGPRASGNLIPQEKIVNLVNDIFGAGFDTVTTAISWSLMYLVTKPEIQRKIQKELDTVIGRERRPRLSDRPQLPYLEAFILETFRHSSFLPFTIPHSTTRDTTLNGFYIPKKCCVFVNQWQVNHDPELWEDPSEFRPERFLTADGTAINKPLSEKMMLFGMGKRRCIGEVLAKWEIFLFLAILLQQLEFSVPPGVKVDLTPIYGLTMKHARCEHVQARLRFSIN

Cytochrome P450 3A4 = Cytochrome P450 3A4 (Homo sapiens, UniProt P08684);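 also: CYP3A4 tested as one member of a cytochrome P450 panel screen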
Cytochrome P450 2C9 = Cytochrome P450 2C9 (Homo sapiens, UniProt P11712)
Cytochrome P450 2C19 = Cytochrome P450 2C19 (Homo sapiens, UniProt P33261); test: Cytochrome panel assay with activity outcomes. Panel member name: p450-cyp2c19 Compounds with AC50 equal or less than 10 uM are considered active; type: functional; conditions: read-out: AC50
[2] = inhibitors of intracellular T. cruzi replication, confirmation, NIH3T3 host cells, beta-gal luminescence (AID 2044); type: functional, cell-based;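 also: intracellular parasites grown in NIH/3T3 mouse fibroblasts as host cells; luminescent beta-galactosidase reporter signal from transgenic T. cruzi replicating inside host cells; inhibitors lower the luminescence signal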
[3] = cytotoxicity toward NIH3T3 fibroblasts, dose response, counter-screen, cell-based, ATP luminescence, mouse fibroblasts (AID 2010); type: functional;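 also: cells exposed to compound for about 90 hours before reading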
[4] = Luminescence Cell-Based Dose Retest to Confirm Inhibitors of Cancer Stem Cells. [Related pubchem assays (depositor defined):AID2717, AID2721]; type: functional; conditions: Homo sapiens
[5] = tested on: Streptococcus sp. 'group A'; test: growth inhibition of control SK(-) GAS strain, dose response, counter-screen for streptokinase expression inhibitor project, luminescence, kanamycin, BacTiterGlo, confirmation (AID 1900); type: functional, organism-based
Streptokinase A = biological target: T3, Streptokinase A (Streptococcus pyogenes serotype M1, UniProt P10520); test: S. pyogenes streptokinase expression inhibitors, potency, dose response, plasminogen activation absorbance, OD405 (AID 1914); type: functional, Streptococcus pyogenes M1 GAS;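 also: secreted streptokinase activity via plasminogen activation per viability signal from cell pellet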
T3 sequence (P10520 whole entry): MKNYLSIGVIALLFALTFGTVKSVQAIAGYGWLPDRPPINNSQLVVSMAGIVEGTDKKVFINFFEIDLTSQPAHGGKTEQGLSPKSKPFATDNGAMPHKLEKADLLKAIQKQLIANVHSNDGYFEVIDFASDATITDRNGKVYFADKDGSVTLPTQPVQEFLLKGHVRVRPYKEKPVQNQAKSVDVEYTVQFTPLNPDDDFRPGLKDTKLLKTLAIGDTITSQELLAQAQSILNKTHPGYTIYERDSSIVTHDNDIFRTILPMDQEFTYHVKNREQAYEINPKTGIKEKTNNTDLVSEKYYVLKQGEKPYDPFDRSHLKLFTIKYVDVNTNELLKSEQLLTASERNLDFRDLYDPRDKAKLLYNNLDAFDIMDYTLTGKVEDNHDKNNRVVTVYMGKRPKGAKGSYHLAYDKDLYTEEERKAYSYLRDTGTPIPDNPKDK

Streptococcus = test: Group A Streptococcus viability loss, dose response, counter-screen for streptokinase expression inhibitor project, luminescence, BacTiterGlo (AID 1915); type: functional, organism-based;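 also: potency for reduction of bacterial viability or growth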
[6] = biological target: FAD-linked sulfhydryl oxidase ALR (Homo sapiens, UniProt P55789); test: inhibitors of human ALR sulfhydryl oxidase, dose response, biochemical, H2O2 detection, luminescence, cherry-pick (AID 493248)
Cytochrome P450 2D6 = Cytochrome P450 2D6 (Homo sapiens, UniProt P10635);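 also: CYP2D6 member of a cytochrome P450 panel assay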
[7] = biological target: T4, Rac GTPase-activating protein 1 (Homo sapiens, UniProt Q9H0H5); test: MgcRacGAP GTPase-activating activity inhibitors, confirmation, biochemical, ADP Hunter fluorescence, primary and confirmatory (AID 624330); type: functional
T4 sequence (Q9H0H5 whole entry): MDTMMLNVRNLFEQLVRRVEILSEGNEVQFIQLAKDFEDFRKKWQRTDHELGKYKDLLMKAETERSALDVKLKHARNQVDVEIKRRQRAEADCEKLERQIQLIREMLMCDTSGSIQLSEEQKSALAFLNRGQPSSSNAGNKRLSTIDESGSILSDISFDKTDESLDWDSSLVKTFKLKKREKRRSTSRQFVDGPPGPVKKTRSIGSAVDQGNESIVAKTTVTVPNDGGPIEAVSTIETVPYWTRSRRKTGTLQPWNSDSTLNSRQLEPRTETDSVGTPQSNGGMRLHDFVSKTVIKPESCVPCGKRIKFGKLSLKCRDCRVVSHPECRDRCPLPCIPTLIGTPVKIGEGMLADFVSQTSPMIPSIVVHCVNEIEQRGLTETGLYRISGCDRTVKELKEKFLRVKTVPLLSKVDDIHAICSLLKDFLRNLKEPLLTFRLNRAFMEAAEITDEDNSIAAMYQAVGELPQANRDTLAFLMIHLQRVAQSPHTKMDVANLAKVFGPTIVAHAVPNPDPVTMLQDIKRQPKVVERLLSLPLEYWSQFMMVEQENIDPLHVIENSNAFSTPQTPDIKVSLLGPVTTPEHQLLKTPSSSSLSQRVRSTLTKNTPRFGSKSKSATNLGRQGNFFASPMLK

Sequence of Cytochrome P450 3A4 (P08684 whole entry): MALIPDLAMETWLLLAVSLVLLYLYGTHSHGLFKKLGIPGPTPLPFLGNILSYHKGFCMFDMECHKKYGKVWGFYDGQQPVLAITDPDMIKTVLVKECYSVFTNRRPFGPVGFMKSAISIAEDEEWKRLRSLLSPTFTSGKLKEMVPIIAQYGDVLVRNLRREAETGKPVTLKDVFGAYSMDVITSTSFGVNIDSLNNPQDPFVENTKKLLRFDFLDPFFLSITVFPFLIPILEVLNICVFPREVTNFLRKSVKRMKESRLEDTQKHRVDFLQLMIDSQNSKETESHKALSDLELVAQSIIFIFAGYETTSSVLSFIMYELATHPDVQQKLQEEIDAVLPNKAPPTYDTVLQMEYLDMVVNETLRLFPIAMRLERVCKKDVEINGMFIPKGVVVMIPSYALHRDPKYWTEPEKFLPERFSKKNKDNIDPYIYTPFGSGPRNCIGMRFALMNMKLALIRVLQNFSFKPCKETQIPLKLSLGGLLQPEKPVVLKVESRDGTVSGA
Sequence of Cytochrome P450 2D6 (P10635 whole entry): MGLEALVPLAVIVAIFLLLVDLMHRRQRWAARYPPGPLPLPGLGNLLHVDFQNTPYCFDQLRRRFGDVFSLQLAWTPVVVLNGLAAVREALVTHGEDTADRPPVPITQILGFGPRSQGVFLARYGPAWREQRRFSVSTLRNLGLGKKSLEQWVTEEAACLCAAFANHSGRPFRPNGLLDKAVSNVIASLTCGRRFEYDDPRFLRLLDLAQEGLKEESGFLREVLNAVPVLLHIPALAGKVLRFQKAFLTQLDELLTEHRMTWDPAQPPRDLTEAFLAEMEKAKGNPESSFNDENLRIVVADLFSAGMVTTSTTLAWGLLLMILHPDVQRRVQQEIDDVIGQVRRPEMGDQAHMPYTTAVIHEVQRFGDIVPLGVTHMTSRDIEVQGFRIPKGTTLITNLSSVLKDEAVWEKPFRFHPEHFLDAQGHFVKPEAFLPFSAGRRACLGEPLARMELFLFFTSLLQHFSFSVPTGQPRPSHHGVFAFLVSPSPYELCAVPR
Sequence of Cytochrome P450 2C9 (P11712 whole entry): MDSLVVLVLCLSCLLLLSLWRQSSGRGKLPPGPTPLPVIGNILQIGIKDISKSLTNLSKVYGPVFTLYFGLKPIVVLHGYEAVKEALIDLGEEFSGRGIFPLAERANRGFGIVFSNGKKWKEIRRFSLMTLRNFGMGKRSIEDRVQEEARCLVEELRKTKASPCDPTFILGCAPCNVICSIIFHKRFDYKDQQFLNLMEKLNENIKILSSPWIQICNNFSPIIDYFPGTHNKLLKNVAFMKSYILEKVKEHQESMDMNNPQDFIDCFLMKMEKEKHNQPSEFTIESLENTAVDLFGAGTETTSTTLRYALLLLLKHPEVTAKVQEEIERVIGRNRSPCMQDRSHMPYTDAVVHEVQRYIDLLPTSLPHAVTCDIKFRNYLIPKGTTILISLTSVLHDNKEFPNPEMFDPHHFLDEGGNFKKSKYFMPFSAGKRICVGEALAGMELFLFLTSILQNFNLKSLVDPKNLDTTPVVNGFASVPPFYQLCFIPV
Sequence of Cytochrome P450 2C19 (P33261 whole entry): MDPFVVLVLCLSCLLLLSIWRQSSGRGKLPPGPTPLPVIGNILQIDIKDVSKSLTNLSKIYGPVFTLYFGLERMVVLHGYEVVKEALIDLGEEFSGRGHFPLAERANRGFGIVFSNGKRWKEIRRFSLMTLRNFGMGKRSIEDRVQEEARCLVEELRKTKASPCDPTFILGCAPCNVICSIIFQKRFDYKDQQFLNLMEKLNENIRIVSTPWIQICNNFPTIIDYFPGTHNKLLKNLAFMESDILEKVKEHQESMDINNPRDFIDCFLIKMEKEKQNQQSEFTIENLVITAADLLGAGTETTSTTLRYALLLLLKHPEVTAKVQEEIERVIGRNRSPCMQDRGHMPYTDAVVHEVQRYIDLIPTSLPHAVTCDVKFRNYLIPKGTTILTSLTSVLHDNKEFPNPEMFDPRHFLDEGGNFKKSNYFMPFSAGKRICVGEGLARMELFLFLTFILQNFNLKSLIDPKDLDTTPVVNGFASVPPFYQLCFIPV
Sequence of FAD-linked sulfhydryl oxidase ALR (P55789 whole entry): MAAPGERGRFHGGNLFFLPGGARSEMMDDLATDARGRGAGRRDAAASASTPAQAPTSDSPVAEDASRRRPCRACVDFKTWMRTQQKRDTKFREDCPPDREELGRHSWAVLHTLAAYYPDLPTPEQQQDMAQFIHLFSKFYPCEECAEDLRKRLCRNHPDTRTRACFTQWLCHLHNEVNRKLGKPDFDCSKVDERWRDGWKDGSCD

## Cc1ccc(C)c2sc(NC(=O)c3ccc(N4C(=O)CCC4=O)cc3)nc12
[1]
  EC50: > 53 µM (inactive)

## CN(C)C(=O)c1ccc(-c2cncnc2Nc2ccccc2)cc1
Cytochrome P450 1A2
  AC50: 31.6 µM (inconclusive)
Cytochrome P450 3A4
  AC50: 5.01 µM (inconclusive)

## COc1ccc(CSC2=C(C#N)C(=O)NC3(CCCCC3)S2)cc1
Cytochrome P450 2C9
  AC50: 3.16 µM (inconclusive)

## Cn1c(N)c(C(=O)CSc2ccc3c(c2)OCCO3)c(=O)n(C)c1=O
Cytochrome P450 2C9
  AC50: 39.8 µM (inconclusive)

## COc1ccc(CNc2ncnc3ccc(-c4cccc(C#N)c4)cc23)c(OC)c1
Cytochrome P450 2C9
  AC50: 0.0158 µM (inconclusive)

## COc1ccc(C(=O)/C=C(/C)N(C)C)cc1
Cytochrome P450 2C19
  AC50: 11.2 µM (inconclusive)
Cytochrome P450 3A4
  AC50: 5.01 µM (inconclusive)

## CC1CN(CCCCOc2cccc(Oc3ccccc3)c2)CC(C)O1 (stereo not drawn)
[2]
  EC50: 1.01 µM (active)
[3]
  EC50: > 60 µM (inconclusive)
[4]
  AC50: 13.3 µM (active)

## CC1(C)CC(=O)C(C2C3=C(CC(C)(C)CC3=O)Oc3c(Br)cc(Br)cc32)=C(O)C1 (stereo not drawn)
[5]
  EC50: 4.66 µM (active)
Streptokinase A
  EC50: 24.8 µM (active)
Streptococcus
  EC50: 12.2 µM (active)
[1]
  EC50: 10.3 µM (active)

## CCc1cc2ccc(C)cc2nc1SCC(=O)c1ccc(NC(C)=O)cc1
[4]
  AC50: 3.68 µM (active)

## CN1CCN(c2ncnc3ccc(-c4cccc(C#N)c4)cc23)CC1
Cytochrome P450 3A4
  AC50: 25.1 µM (inconclusive)

## COc1cccc(-c2cc(C(F)(F)F)nc(N3CCN(c4ccccc4)CC3)n2)c1
Cytochrome P450 2C9
  AC50: 0.631 µM (inconclusive)

## CC/C(=C\C1CCCCC1)C(NP(=O)(c1ccccc1)c1ccccc1)c1ccccc1 (stereo not drawn)
[5]
  EC50: 1.68 µM (active)
Streptococcus
  EC50: 2.26 µM (active)
[4]
  AC50: 2.58 µM (active)

## COc1ccc(-c2[nH]c(-c3ccc(C(=O)O)cc3)nc2-c2ccccc2)cc1
[6]
  AC50: 3.94 µM (active)
Cytochrome P450 2C19
  AC50: 39.8 µM (inconclusive)
Cytochrome P450 1A2
  AC50: 28.2 µM (inconclusive)

## COc1cc2c(c(OC)c1OC)-c1ccc(O)c(=O)cc1[C@H](N)CC2
Cytochrome P450 3A4
  AC50: 3.16 µM (inconclusive)

## Brc1ccccc1OCCOCCOc1cccc2cccnc12
Cytochrome P450 2C19
  AC50: 3.16 µM (inconclusive)
Cytochrome P450 3A4
  AC50: 39.8 µM (inconclusive)
Cytochrome P450 2C9
  AC50: 11.2 µM (inconclusive)

## C=CCc1cccc(CNc2nc3ccccc3n2CCC)c1O
[4]
  AC50: 7.58 µM (active)

## Cc1ccc2oc(=O)c(/C=C(\O)c3sc(C)nc3C)nc2c1
[1]
  EC50: 7.67 µM (active)

## Cc1ccc(NC(=O)c2cc([N+](=O)[O-])ccc2NCc2cccnc2)cc1Cl
[2]
  EC50: 1.82 µM (active)
[3]
  EC50: > 60 µM (not active)
Cytochrome P450 2D6
  AC50: 0.794 µM (inconclusive)
Cytochrome P450 2C9
  AC50: 0.251 µM (inconclusive)

## CCOC(=O)/C(=C/C=C1\Sc2ccccc2N1CC)C(C)=O
[1]
  EC50: 11.5 µM (active)

## CCOc1ccc(OCc2cccc(C(=O)Nc3ccc(CN4CCCCC4)cc3)c2)cc1
[4]
  AC50: 5.46 µM (active)

## CCCSc1nc(SCC(=O)NCc2ccccc2)c2c3c(sc2n1)COC(C)(CC)C3 (stereo not drawn)
Cytochrome P450 3A4
  AC50: 7.08 µM (inconclusive)

## COc1ccc(C(C(=O)NC2CCCCC2)N(C(=O)CCCC(=O)Nc2ccccn2)c2ccc3c(c2)OCCO3)cc1 (stereo not drawn)
Cytochrome P450 2C19
  AC50: 7.94 µM (inconclusive)
Cytochrome P450 2C9
  AC50: 14.1 µM (inconclusive)

## COc1ccc(CNc2ccnc(-c3c(C)noc3C)n2)c(OC)c1
Cytochrome P450 2D6
  AC50: 39.8 µM (inconclusive)
Cytochrome P450 2C9
  AC50: 1 µM (inconclusive)

## Cc1ccc(N2CC(C(=O)Nc3cc(C)on3)CC2=O)cc1 (stereo not drawn)
Cytochrome P450 3A4
  AC50: 22.4 µM (inconclusive)
Cytochrome P450 2C9
  AC50: 11.2 µM (inconclusive)

## CCCn1c(=O)c(C(=O)NNC(=O)c2ccc(Cl)cc2Cl)c(O)c2ccccc21
[1]
  EC50: 4.01 µM (active)

## CC(C)C[C@H](NC(=O)N1CCCCCC1)C(=O)N[C@H](Cc1cn(C)c2ccccc12)C(=O)N[C@H](Cc1ccccn1)C(=O)O
Cytochrome P450 1A2
  AC50: 39.8 µM (inconclusive)
Cytochrome P450 3A4
  AC50: 15.8 µM (inconclusive)

## Cc1ccc(CSc2nnc(-c3ccncc3)n2CC2CCCO2)cc1 (stereo not drawn)
Cytochrome P450 3A4
  AC50: 1.41 µM (inconclusive)

## O=C(O)CC/C(=N\Nc1ccccc1[N+](=O)[O-])c1cccs1
[6]
  AC50: 2.73 µM (active)

## COC(=O)c1sccc1-c1ccc(C(=O)Nc2cccc(Cl)c2)o1
Cytochrome P450 3A4
  AC50: 28.2 µM (inconclusive)

## CN(C)c1ccc(C(C(=O)NC2CCCC2)N(C(=O)c2ccco2)C2CC2)cc1 (stereo not drawn)
[6]
  AC50: 2.33 µM (active)

## C/C(=N\Nc1nc2ccccc2[nH]1)c1cccs1
[6]
  AC50: 0.02 µM (active)
[7]
  IC50: 26.8 µM (active)

## COc1ccc(CCNC(=O)CCN2C(=O)COc3ccc(C)cc32)cc1OC
Cytochrome P450 2D6
  AC50: 39.8 µM (inconclusive)
Cytochrome P450 2C9
  AC50: 28.2 µM (inconclusive)

## O=C(NCCc1ccccc1)c1cc(-c2ccccc2)c(N2CCOCC2)s1
[4]
  AC50: 3.48 µM (active)

## NC(=O)C1CCN(C(=O)N2c3ccccc3Sc3ccccc32)CC1
[6]
  AC50: 10.8 µM (active)

## C[C@H](C(=O)c1ccncc1)c1ccccn1
Cytochrome P450 3A4
  AC50: 3.98 µM (inconclusive)

## O=C1N/C(=C\c2ccc(N3CCOCC3)c(F)c2)C(=O)N1Cc1ccccc1
Cytochrome P450 1A2
  AC50: 2 µM (inconclusive)
Cytochrome P450 3A4
  AC50: 0.794 µM (inconclusive)

## CC(=O)N1CCC2(CCCN(Cc3nccs3)C2)CC1
Cytochrome P450 2D6
  AC50: 15.8 µM (inconclusive)
Cytochrome P450 3A4
  AC50: 39.8 µM (inconclusive)

## CCc1ccc2c(c1)[C@H]1OCC[C@H]1[C@@H](c1cccs1)N2
[4]
  AC50: 2.97 µM (active)

## CN1CCCC(CN2c3ccccc3Sc3ccccc32)C1 (stereo not drawn) [MEPAZINE ACETATE]
[6]
  AC50: 0.098 µM (active)
